From patent US20120202258A1, “LIGE-TYPE TRANSFORMANTS FOR BIOCONVERSION OF LIGNIN-DERIVED COMPOUNDS” (priority 2010, published 2012)

Tested on: Saccharomyces cerevisiae
Experiment: not given
Conditions: result in words; cited from earlier work

Row | Molecule | antifungal activities against the yeast Saccharomyces cerevisiae
1 | O=C(O)C=Cc1ccccc1 [cinnamic acid] | significant antifungal activities
2 | O=C(O)/C=C/c1ccc(O)cc1 [p-coumaric acid] | significant antifungal activities
3 | COc1ccc(C=O)cc1OC [Veratraldehyde] | significant antifungal activities
4 | COc1cc(CCC(C)=O)ccc1O [vanillylacetone] | significant antifungal activities
5 | O=C(O)/C=C/c1cccc(O)c1 [m-coumaric acid] | significant antifungal activities
6 | COc1cc(C(=O)O)ccc1O [vanillic acid] | significant antifungal activities
7 | O=C(O)/C=C/c1ccccc1O [o-coumaric acid] | significant antifungal activities

Tested on: Escherichia coli
Experiment: not given
Conditions: demonstrated; result in words; cited from earlier work

Row | Molecule | antibacterial activity against Escherichia coli
8 | O=Cc1cc(O)ccc1O [2,5-dihydroxybenzaldehyde] | antibacterial activity
9 | O=Cc1cccc(O)c1O [2,3-dihydroxybenzaldehyde] | antibacterial activity
10 | O=Cc1ccc(O)c(O)c1O [2,3,4-trihydroxybenzaldehyde] | antibacterial activity
11 | O=Cc1ccccc1O [2-hydroxybenzaldehyde] | antibacterial activity
12 | COc1ccc(O)c(C=O)c1 [2-hydroxy-5-methoxybenzaldehyde] | antibacterial activity
13 | O=Cc1ccc(O)cc1O [2,4-dihydroxybenzaldehyde] | antibacterial activity
14 | O=Cc1c(O)cc(O)cc1O [2,4,6-trihydroxybenzaldehyde] | antibacterial activity
15 | COc1cccc(C=O)c1O [2-hydroxy-3-methoxybenzaldehyde] | antibacterial activity
16 | COc1cc(O)cc(OC)c1C=O [4-hydroxy-2,6-dimethoxybenzaldehyde] | antibacterial activity

Same assay, conditions: known; result in words; cited from earlier work

Row | Molecule | antimicrobial activity against Escherichia coli
17 | COc1cc(C=O)ccc1O [vanillin] | antimicrobial activity
18 | O=Cc1ccco1 [furfural] | antimicrobial activity
19 | O=Cc1ccc(O)cc1 [4-hydroxybenzaldehyde] | antimicrobial activity
20 | COc1cc(C=O)cc(OC)c1O [syringaldehyde] | antimicrobial activity
21 | O=Cc1ccc(CO)o1 [5-hydroxymethylfurfural] | antimicrobial activity

Tested on: not listed separately
Experiment: in vitro beta-etherase biochemical assay on fluorescent substrate MUAV (4MU fluorescence), clarified E. coli cell extracts
Conditions: 0.1 mM MUAV substrate
Excerpt: The model substrate synthesis 150 for use in the biochemical screening for selective activity can be outsourced through a contract research organization (CRO). The enzyme discovery effort can initially be focused on identifying potential beta-etherase candidate genes identified through bioinformatic methods. […] The fluorescent substrate α-O-(β-methylumbelliferyl) acetovanillone (MUAV), for example, can be used in in vitro assays to identify beta-etherase function (Acme Biosciences, Mt. View, Calif.). The formation of 4 methylumbelliferone (4MU) upon hydrolysis of the aryl ether bond can be monitored by fluorescence, for example, at λex=365 nm and λem=450 nm (or 460 nm).
The enzyme screening 155 is done to identify novel etherases 160. […] Expression of the beta-etherase genes can be done in 5 ml or 25 ml samples of the recombinant E. coli strains in LB medium using induction with IPTG. Following induction, and cell harvest, cell pellets can be be lysed using the BPER (Invitrogen) cell lysis system. […] The formation of 4 methylumbelliferone (4MU) upon hydrolysis of the aryl ether bond in MUAV can be monitored by fluorescence at λex=365 nm and λem=460 nm, and can provide quantitative measurement of beta-etherase function. Cell extracts of E. coli transformed with the S. paucimobilis ligE and ligF genes can be the assay positive controls. Test or unknown samples can include, for example, E. coli strains expressing putative beta-etherase genes from N. aromaticovorans.
This example describes a method for gene expression in E. coli, as well as beta-etherase biochemical assays. Expression of known and putative beta-etherase genes was performed using 5 ml cultures of the recombinant E. coli strains described herein in Luria Broth medium by induction of gene expression using isopropylthiogalactoside (IPTG) to a final concentration of 0.1 mM. Following induction, and cell harvest, the cells were disrupted using either sonication or the BPER (Invitrogen) cell lysis system.
In vitro reactions were performed in a total volume of 200 ul and contained: 25 mM TrisHCl pH 7.5; 0.5 mM dithiothreitol; 1 mM glutathione; 0.05 mM or 0.1 mM MUAV; 10 ul of clarified cell extract used to initiate the reactions. Following incubation for 2.5 hours at room temperature, a 50 ul sample of the reactions was terminated using 150 uL of 300 mM glycine/NaOH buffer pH 9. The formation of 4 methylumbelliferone (4MU) upon hydrolysis of the aryl ether bond was monitored by the increase in fluorescence at λex=360 nm and λem=450 nm using a Spectramax UV/visible/fluorescent spectrophotometer.
The total protein concentrations of the cell lysates were determined using the BCA reagent system for protein quantification (Pierce).

Row | Molecule | fold more efficient than S. paucimobilis ligE beta-etherase enzyme
22 | ligE1: N. aromaticivorans putative beta-etherase polypeptide, glutathione S-transferase-like protein, expressed in E. coli (protein) MAANNTITFYDLALSTGATISPFVWATKYALKHKGFDLDVVPGGFTGILERTGGKTERLPAIVDDGEFVLDSWGIVEYLDAKYPDRPVLIPHESVAATLKALDNWFWNAAVGPWMFCFCQDYRDLSLPQDHEYVTHSREKMLGRKLEEVQAGREERLPKISAALEPLRAALAQHQWLGGSSPNYADYRIMGGILFTASVCKTPVLANDDPLRDWIERCLDLYGGLGRHPGLFPLFGLEQREGDPDLFNRAAGQGGIYKRNTGPESTRAETQRITEGMKK | approximately 75 fold

Same assay, conditions: MUAV substrate; result in words

Row | Molecule | beta-etherase activity
23 | ABD26530.1: N. aromaticivorans putative beta-etherase polypeptide (protein) MVIPLGEDNTIMLKLYSFGPAANSMKPLLTVFEKGLDVEKHRLDPAKFEHHTDWFKAINPRGQVPALVDGDKVVTESTVICEYLEDEYPTEVALRPADSFGKAQMRIWTKWVDEYFCWCVSTIGWHRYVGNMVKSLSDAEFEEKVKAIPVIEQQVKWRRAREGFPQDMLDEEMRKIAYSVRKLDDHLADHEWLVPGQYTLADICNFAIANGMQFGFAELVNKQDTPHLVRWIEQINERPAVKQMFAQVELEKLGPRE | beta-etherase activity
24 | ABD27309.1: N. aromaticivorans putative beta-etherase polypeptide (protein) MDEVSLYHWEPNANSGKPMLALMEKGVPFSSHYIDMLQFDQHKPEYLAINPQGTIPAMTHNGQVLTESTAIMEYVNDRFDGPDLMPADAQDRWRVRWWMKFMDQWLGPSFSMIGWSVFVGPMVRQRDPAELAAAIDRIPLPERRTAWRKAINGDFSESEMAESRRRVGLGIAKLEEELGKRPYVGSNQYSLADINIFNSTYSLPISQPDLAGKDRTPNIMRWLKRVYTREAVKKTWAMGKTDLAHRYGLIMAEIEG | beta-etherase activity
25 | ligE1: N. aromaticivorans putative beta-etherase polypeptide, glutathione S-transferase-like protein, expressed in E. coli (protein) MAANNTITFYDLALSTGATISPFVWATKYALKHKGFDLDVVPGGFTGILERTGGKTERLPAIVDDGEFVLDSWGIVEYLDAKYPDRPVLIPHESVAATLKALDNWFWNAAVGPWMFCFCQDYRDLSLPQDHEYVTHSREKMLGRKLEEVQAGREERLPKISAALEPLRAALAQHQWLGGSSPNYADYRIMGGILFTASVCKTPVLANDDPLRDWIERCLDLYGGLGRHPGLFPLFGLEQREGDPDLFNRAAGQGGIYKRNTGPESTRAETQRITEGMKK | beta-etherase activity
26 | LigF2: N. aromaticivorans putative beta-etherase polypeptide, glutathione S-transferase-like protein (protein) MALKYYHAEPLANSLKSMVPLKEKGLAYESIYVDLHKFEQHQPWFTAINPEGQVPVLDHDGTIITHTTVINEYLEDAFPDAQPADAPLRPRDPVGAARMRYWNKFIDEHVMNYVSMHGWHRMVGVIARNIASGDFEKLLESIPLPDQRKKWATARSGFSEADLANATAKIEYALDKVEKQLGETKWLAGDTYTLADINFYSHCGAMVERMFPEMEVARRAPRLCEWRDRVAARPAVAEALKSEDRTAPGLRVWSGEVR | beta-etherase activity

Tested on: not given
Experiment: not given
Conditions: FIG. 2B, S. paucimobilis LigDFEG gene cluster; result in words; cited from earlier work

Row | Molecule | enzyme activity of gene product
27 | LigD: S. paucimobilis C alpha-dehydrogenase gene product [reference compound] | Cα-dehydrogenase activity
28 | LigF: S. paucimobilis beta-etherase, positive control polypeptide (protein) MTLKLYSFGPGANSLKPLATLYEKGLEFEQVFVDPSKFEQHSDWFKKINPRGQVPALWHDGKVVTESTVICEYLEDVFPESGNSLRPADPFKRAEMRVWTKWVDEYFCWCVSTIGWAFGIKAIAQKMSDEEFEEHINKNVPIPEQQLKWRRARNGFPQEMLDEEFRKVGVSVARLEETLSKQDYLVDTGYSLADICNFAIANGLQRPGGFFGDYVNQEKTPGLCAWLDRINARPAIKEMFEKSKREDLLKRQNEKVA | β-etherase activity
29 | ligE: S. paucimobilis beta-etherase, positive control polypeptide (protein) MARNNTITLYDLQLESGCTISPYVWRTKYALKHKGFDIDIVPGGFTGILERTGGRSERVPVIVDDGEWVLDSWVIAEYLDEKYPDRPMLFEGPTQKNLMKFLDNWLWSTAVGPWFRCYILDYHDLSLPQDRDYVRWSREQWFLGGQRLEDVQAGREDRLPLVPPTLEPFRRILAETKWLGGDQPNFADYSALAVFLWTASVARTPPLTEDDPLRDWLDRGFDLFDGLGRHPGMNPLFGLKLREGDPEPFVRQTGPAGAGGQALNKGPQTTKMPPRVAEKAD | β-etherase activity
30 | LigG: S. paucimobilis glutathione-eliminating glutathione S transferase gene product (protein) MSGASARSLGKGSAPPGPVPEGQIRVYSMRFCPFAQRTLMVLKAKGIRHEIININLKNKPEWFFEKNPFGLVPVLENTQGHLITESVITCEYLDEAYPEKKLFPDDPYEKACQKMTFELFSKVPSLVTSFIRAKRKEDHPGIKEELKKEFSKLEEAMANKRTAFFGGNSLSMIDYLIWPWFQRLEALELNECIDHTPKLKLWMATMQEDPVASSHFIDAKTYRDYLSLYLQDSPEACDYGL | glutathione lyase activity
